Among the test systems are DLD-1 colon; DMS 273 small cell lung; KM20L2 colon; SNB-78 CNS; XF 498 CNS; P388 leukemia; P388/ADR leukemia; SN12K1 renal; RXF-631 renal.
Common to all, as to experiment: NCI tumour cell line growth inhibition, 48 h

SMILES strings stand for the structures.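 Briefly, cells in 96-well plates were exposed to five compound concentrations for 48 h, and endpoints were estimated by linear interpolation. GI50 marks 50% less growth. TGI: total growth inhibition.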 A value given as a limit tells only on which side of the number the result lay.

Ten compounds from PubChem BioAssay (NCI) can be followed below.

For the compound `O=C(Cc1ccccc1)NN1C(=O)C(Cl)C1c1ccccc1O` (stereo not drawn), the TGI in the experiment with DLD-1 colon, in the experiment with DMS 273 small cell lung, with KM20L2 colon, in the experiment on SNB-78 CNS and in the experiment with XF 498 CNS was > 100 µM in each case.
For the compound `COc1cc(/C=C(/C#N)C(N)=O)ccc1O`, the TGI with DLD-1 colon, in the experiment with DMS 273 small cell lung, in the experiment on KM20L2 colon, in the experiment on P388 leukemia, in the experiment with P388/ADR leukemia and with SN12K1 renal was > 100 µM in each case. The TGI with SNB-78 CNS and with XF 498 CNS was > 100 µM in each case.
On to `Cc1ccc(CC(C)N)cc1` (stereo not drawn), for which the TGI in the experiment with DLD-1 colon, with DMS 273 small cell lung, with KM20L2 colon, in the experiment on RXF-631 renal and with SNB-78 CNS was > 100 µM throughout.
On to `COc1cc2c(cc1OC)C1(c3ccc(Cl)cc3)ON=C(c3ccccc3)N1CS2` (stereo not drawn), for which the TGI with DLD-1 colon, with DMS 273 small cell lung, with KM20L2 colon, in the experiment with RXF-631 renal and in the experiment with SNB-78 CNS was > 100 µM each time.
Take `CC(NC(C)(C)C)C(=O)c1cccc(Cl)c1` (stereo not drawn): the TGI in the experiment on DLD-1 colon, in the experiment with DMS 273 small cell lung, in the experiment with KM20L2 colon, with RXF-631 renal and in the experiment with XF 498 CNS was > 100 µM in each case.
Turning to `CCOC(=O)CSc1nnc(C(Sc2nc(-c3ccccc3)c(-c3ccccc3)[nH]2)C(C)C)n1-c1ccccc1` (stereo not drawn), the TGI in the experiment on DLD-1 colon, in the experiment with DMS 273 small cell lung, in the experiment with KM20L2 colon and in the experiment on SNB-78 CNS was > 10 µM throughout.
On to `CCCc1ccc(NCc2cc(OC)c(OC)c(OC)c2)cc1`, for which the TGI with DLD-1 colon was 48.1 µM; with DMS 273 small cell lung, 31.8 µM; in the experiment on KM20L2 colon, > 100 µM; with SNB-78 CNS, > 100 µM; with XF 498 CNS, 52.8 µM. Also, the GI50 with DMS 273 small cell lung was 16.2 µM.
As to `N#C/C(=C\c1c[nH]c2ccccc12)C(=O)c1ccc(O)c(O)c1`, the TGI in the experiment with DLD-1 colon, with DMS 273 small cell lung, in the experiment on KM20L2 colon and in the experiment on XF 498 CNS was > 100 µM throughout.
Regarding `Cc1cc(NCCCCCCCNc2cc(C)nc3cc([N+](=O)[O-])ccc23)c2ccc([N+](=O)[O-])cc2n1`, the TGI was 3.55 µM with DLD-1 colon; 15.5 µM with DMS 273 small cell lung; 32 µM in the experiment on KM20L2 colon; > 45.9 µM in the experiment with RXF-631 renal; > 31.6 µM in the experiment on SNB-78 CNS; > 48.1 µM in the experiment on XF 498 CNS.
With `Nc1ccc(C(=O)NN2C(=O)C(Cl)C2c2ccccc2)cc1` (stereo not drawn), the TGI with DLD-1 colon, in the experiment on DMS 273 small cell lung, in the experiment on KM20L2 colon, in the experiment with SNB-78 CNS and with XF 498 CNS was > 100 µM throughout.
